The values below come from patent publication US20250313563A1, “GLYCOGEN SYNTHASE KINASE 3 INHIBITORS AND USES THEREOF” (The Broad Institute, Inc., priority 2022, published 2025).

Entries after “also recorded” stand apart in the source; their conditions may differ. Read-outs that look alike come from different tables or passages of the source. A value given as a limit tells only on which side of the number the result lay.

The target of assay [1] is GSK3b (GST-full length GSK3b) (Homo sapiens (Human), UniProt P49841). Kind of assay: GSK3b TR-FRET kinase assay. The settings on record: geometric mean, GMean. The class given is biochemical. The gist of the method: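 Full-length GST-tagged human enzyme (1 nM) is exposed to test compound for 30 min before substrates are added. Phosphorylation of a primed biotinylated glycogen synthase peptide proceeds 100 min at room temperature at low ATP (4 μM α; 2 μM β) or high ATP (1 mM). Product is quantified by TR-FRET.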
GSK3b (GST-full length GSK3b), sequence (P49841 whole entry): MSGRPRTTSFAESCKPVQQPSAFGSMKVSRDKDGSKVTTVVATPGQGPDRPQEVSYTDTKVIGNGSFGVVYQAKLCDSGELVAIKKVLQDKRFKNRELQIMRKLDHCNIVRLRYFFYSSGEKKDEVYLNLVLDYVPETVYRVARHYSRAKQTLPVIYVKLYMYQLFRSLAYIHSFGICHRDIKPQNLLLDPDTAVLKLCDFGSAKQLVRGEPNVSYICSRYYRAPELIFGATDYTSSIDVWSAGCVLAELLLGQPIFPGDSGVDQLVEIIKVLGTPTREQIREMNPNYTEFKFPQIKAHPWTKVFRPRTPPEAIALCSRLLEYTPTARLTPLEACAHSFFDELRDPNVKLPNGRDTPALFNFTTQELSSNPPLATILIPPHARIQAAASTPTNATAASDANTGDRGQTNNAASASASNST

The next assay addresses GSK3α (Homo sapiens (Human), UniProt P49840). Kind of assay: pThr231 tau phosphorylation plate-based assay in HEK-huTau cells transfected with GSK3α. The settings on record: HEK-huTau cells transfected with human GSK3α; 10-point dose response, 2 hours; read-out: GSK3α IC50 (inhibition of pThr231). The class given is cell-based. Here is the method:
(§1) HEK293 or SH-SY5Y cells were obtained from American Type Culture Collection (ATCC, Manassas, VA) and cultured in Dulbecco's modified Eagle's medium (DMEM) supplemented with 10% fetal bovine serum (FBS), 10 units/ml penicillin, and 10 μg/ml streptomycin (all reagents were purchased from Gibco, Waltham, MA). Cell cultures were maintained in a humidified 5% (v/v) CO2/air environment at 37° C. When the cells reached 50-80% confluence, they were transfected with a complex consisting of a 3:1 ratio of FuGENE 6 Transfection Reagent (Promega, Madison, WI) and plasmid DNA. Plasmid DNA was balanced out across reactions using an empty plasmid so that the same amount of DNA was added per well. This transfection complex was prepared following the manufacturers protocol and added directly to the cell media for 24 or 48 hours prior to lysis.
(§2) 293T cells stably expressing human 2N4R Tau were transfected with appropriate cDNA plasmids. 24 hours following transfection cells were treated with compound in a 10-point dose-response (from 1000× stocks of compound) and lysates harvested 2 hours later with cell extraction buffer (Life Technologies Cat #BN0001) or RIPA Buffer with Halt protease/phosphatase inhibitors added.
(§3) For pThr231 assay: Lysate was diluted 1:100 in assay buffer and Total Tau and pTau T231 was assessed by plate-based ELISA as per manufacturer instructions (MSD Cat #K15121D-1). Total fluorescence was measured using an Envison plate reader.
(§4) To test the potency and isoform selectivity of GSK3 small molecule inhibitors, HEK-huTau cells were transfected with plasmids containing either human GSK3α or GSK3β. Twenty-four hours after transfection, compounds were added at a 10-point dose response curve (at a range of 30 μM-3 nM) for a total of 2 hours, and cell lysates were probed for total tau and pThr231 using a plate-based assay.

Assay [2] deals with β-catenin nuclear translocation in SH-SY5Y cells. As to the kind of experiment: β-catenin translocation assay. Type of assay: cell-based. The settings on record: HEK-huTau GSK3α vs SH-SY5Y β-catenin. Here is the method: SH-SY5Y cells were seeded into a 96-well CellCarrier Ultra (Perkin Elmer) plate at a density of 1×10^5 cells/ml in complete DMEM. Sixteen hours following plating, media was changed to DMEM with 2% serum, and compound was added with a D300e Digital Dispenser (Tecan) for an incubation time of six hours. After compound incubation, media was removed, and cells were fixed with 4% PFA for 10 minutes at room temperature. Each well was washed three times with PBS-T and then blocked with buffer (1×PBS with 5% Normal Goat Serum and 0.3% Triton X-100) for 30 minutes at room temperature. β-Catenin primary antibody (Cell Signaling #8480) was added at 1:500 dilution in blocking buffer and the cells were allowed to incubate in primary overnight at 4° C. The following day, primary antibody was removed, each well was washed three times with PBS-T, and secondary antibody (1:2000 anti-rabbit AlexaFluor Plus 488 and 1:10,000 Hoechst 33342) was added and allowed to incubate for 60 minutes at room temperature protected from light. After one-hour, secondary antibody was removed and wells were washed four times with PBS-T before imaging on the Opera Phenix. Sixteen fields per well were imaged with a 20× water lens.
Images were quantified in the Columbus Image Data Storage and Analysis software. Cells were identified using the Hoechst nuclear stain to identify individual nuclei. Intensity of the nuclear stain was also used to determine cell viability (Viable cells <30% CV of Hoechst Intensity)

Assay [3] relates to tau phosphorylation at pThr231. Kind of assay: Rat developmental model of tau phosphorylation. Particulars: P10 rats. Type of assay: in vivo, Sprague Dawley rats. Here is the method:
Sprague Dawley rats were bred in-house and litters were injected with compound, I.P. at post-natal day 10. Rats were then euthanized at indicated times following drug administration. For tissue collection, animals were euthanized via decapitation, brains were quickly removed, and bisected sagitally. The right cortex, was isolated, placed into 2 mL microtubes along with a single 5 mm stainless steel bead and the left cortex were placed into 2 mL Lysing Matrix A tubes (MP Biomedicals, Santa Ana, CA), Both tubes were immediately snap frozen in liquid nitrogen.
To determine whether a selective GSK3α inhibitor could also lower tau phosphorylation in a more physiological setting, 837646 was administered to rats at post-natal day 10. […] In the current experiment, 837646 was administered at 60, 20 and 10 mg/kg in P10 rats. The animals were sacrificed at several time points following treatment.

A further assay has as its target human GSK3β (Homo sapiens (Human), UniProt P49841). As to the kind of experiment: pThr231 tau phosphorylation plate-based assay in HEK-huTau cells transfected with GSK3β. Type of assay: cell-based. Particulars: HEK-huTau cells transfected with human GSK3β; 10-point dose response, 2 hours; read-out: GSK3β IC50 (inhibition of pThr231). On the procedure:
as §1, §2, §3, §4

GSK3α, sequence (P49840 whole entry): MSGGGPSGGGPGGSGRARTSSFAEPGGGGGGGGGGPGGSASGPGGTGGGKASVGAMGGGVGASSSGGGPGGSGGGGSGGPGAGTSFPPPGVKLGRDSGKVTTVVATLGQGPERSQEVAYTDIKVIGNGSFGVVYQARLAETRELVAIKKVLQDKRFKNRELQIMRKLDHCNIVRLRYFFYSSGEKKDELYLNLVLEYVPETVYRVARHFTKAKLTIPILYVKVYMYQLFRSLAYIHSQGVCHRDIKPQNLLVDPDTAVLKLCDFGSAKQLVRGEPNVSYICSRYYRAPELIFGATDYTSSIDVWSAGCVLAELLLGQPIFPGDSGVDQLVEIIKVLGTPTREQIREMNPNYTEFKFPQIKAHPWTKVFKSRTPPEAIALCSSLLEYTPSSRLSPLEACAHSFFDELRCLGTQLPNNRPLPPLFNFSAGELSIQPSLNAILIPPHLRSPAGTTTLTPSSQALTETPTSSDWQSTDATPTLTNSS
human GSK3β, sequence (P49841 whole entry): as the sequence (P49841 whole entry) above

Regarding `CCC1(c2cccc(C(F)(F)F)c2)C2=C(Nc3n[nH]cc31)C(F)C(C)(C)CC2=O` (single isomer, unassigned) [Compound 837646, 4-ethyl-8-fluoro-7,7-dimethyl-4-(3-(trifluoromethyl)phenyl)-2,4,6,7,8,9-hexahydro-5H-pyrazolo[3,4-b]quinolin-5-one], the IC50 in assay [1] (1 nM GSK3b, 2 μM ATP, 30 minute preincubation, read-out: GSK3-B TR-FRET BIOCHEMICAL (TR-FRET), IC50) was no more than 100 nM; in assay [1] (GSK3-B (TR-FRET 1 mM ATP), IC50, 1 mM ATP), 1000 to 5000 nM; on GSK3α, 150 nM; on human GSK3β, 1000 nM. For the same compound, in assay [2], the “window between potency on tau phosphorylation by GSK3α and concentrations affecting β-catenin stabilization” value was greater than 20 fold. The “tau phosphorylation at pThr231 vs vehicle, 24 hr” value in assay [3] (I.P., 20 or 60 mg/kg, 24 hr) is listed as “significantly different from the vehicle group”. Moreover, the “tau phosphorylation at pThr231 vs vehicle, 3 hours” value in assay [3] (I.P., 60, 20 and 10 mg/kg, 3 hours after administration) is “significant lowering of tau phosphorylation at pThr231; also recorded: reduction in tau phosphorylation at Thr231 at all doses tested”.
